In patent US4886813A, “Proline derivatives” (Otsuka Pharmaceutical Factory, Inc., priority 1985, dated 1989):

Target: T1, angiotensin-converting enzyme (ACE) (Oryctolagus cuniculus, UniProt P12822)
T1 construct: enzyme solution prepared from rabbit lung acetone powder; tissue Sigma Chemical Co., Ltd., U.S.A; host or cells: rabbit lung (acetone powder)
T1 sequence (P12822 34-1310): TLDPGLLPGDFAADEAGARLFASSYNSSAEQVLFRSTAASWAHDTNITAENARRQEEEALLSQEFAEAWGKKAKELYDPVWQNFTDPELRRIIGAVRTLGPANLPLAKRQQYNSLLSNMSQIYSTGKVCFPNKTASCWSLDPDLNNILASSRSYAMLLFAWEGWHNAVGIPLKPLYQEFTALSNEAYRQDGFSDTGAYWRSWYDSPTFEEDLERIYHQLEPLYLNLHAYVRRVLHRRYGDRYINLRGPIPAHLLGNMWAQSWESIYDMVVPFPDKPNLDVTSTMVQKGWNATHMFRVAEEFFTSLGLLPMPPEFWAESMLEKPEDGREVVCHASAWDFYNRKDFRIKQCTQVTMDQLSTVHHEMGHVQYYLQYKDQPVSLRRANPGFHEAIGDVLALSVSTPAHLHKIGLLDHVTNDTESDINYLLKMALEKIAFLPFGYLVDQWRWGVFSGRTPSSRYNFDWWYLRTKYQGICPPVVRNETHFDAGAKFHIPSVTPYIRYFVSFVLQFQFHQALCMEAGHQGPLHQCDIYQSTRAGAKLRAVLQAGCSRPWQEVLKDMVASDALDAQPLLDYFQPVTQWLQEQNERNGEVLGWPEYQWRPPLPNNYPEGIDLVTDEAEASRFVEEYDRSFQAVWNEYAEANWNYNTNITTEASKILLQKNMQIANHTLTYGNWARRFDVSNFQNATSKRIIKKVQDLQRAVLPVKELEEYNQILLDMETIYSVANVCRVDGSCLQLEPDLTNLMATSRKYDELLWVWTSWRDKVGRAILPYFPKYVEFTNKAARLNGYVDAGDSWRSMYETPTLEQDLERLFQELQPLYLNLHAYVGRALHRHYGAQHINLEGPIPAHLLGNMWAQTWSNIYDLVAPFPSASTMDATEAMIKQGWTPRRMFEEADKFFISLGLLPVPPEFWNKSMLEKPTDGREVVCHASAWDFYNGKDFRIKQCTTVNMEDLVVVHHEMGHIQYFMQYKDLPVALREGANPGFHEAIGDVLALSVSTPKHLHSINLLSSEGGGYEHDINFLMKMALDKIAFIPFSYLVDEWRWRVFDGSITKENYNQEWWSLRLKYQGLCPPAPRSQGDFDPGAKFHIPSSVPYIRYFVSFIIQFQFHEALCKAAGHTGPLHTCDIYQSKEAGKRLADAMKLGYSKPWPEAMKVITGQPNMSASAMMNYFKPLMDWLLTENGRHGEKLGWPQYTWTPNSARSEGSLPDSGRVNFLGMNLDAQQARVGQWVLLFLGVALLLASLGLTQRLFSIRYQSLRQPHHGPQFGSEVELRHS
Assay: Inhibitory activity against angiotensin-converting enzyme (ACE)
Format: biochemical
Conditions: enzyme from rabbit lung acetone powder; substrate hippuryl-histidyl-leucine; 37° C.; preincubation 10 minutes, reaction 45 minutes
Description: A 100 μl quantity of an enzyme solution prepared from rabbit lung acetone powder (product of Sigma Chemical Co., Ltd., U.S.A.) was mixed with 100 μl of a sample solution. The mixture was gently shaken at 37° C. for 10 minutes. To the reaction mixture was added 100 μl of a solution containing 6.69 mM of hippuryl-histidyl-lecuine (product of Peptide Institute, Inc., Japan) as a substrate. The mixture was reacted at 37° C. for 45 minutes while being shaken. The reaction was terminated by addition of 200 μl of a 1N sulfuric acid to the reaction mixture. Sodium chloride (saturation amount) and diethyl ether (2 ml) were added to the reaction mixture to extract the hippuric acid formed by the reaction. The resulting mixture was vigorously shaken for 15 minutes and centrifuged at 2000 r.p.m. for 5 minutes. A 1.5 ml quantity of the ether layer was separated. After the solvent was distilled off, the residue was redissolved in 1.5 ml of distilled water and the absorbance of 228 nm was measured. A control was prepared by repeating the same procedure as above except that […] of distilled water was used in place of the sample solution.
The inhibitory activity was calculated by deducting the absorbance value of the residue formed by addition of the sample solution from that of the control and the resulting value was divided by the absorbance value of the control and multipled by 100, thereby giving a percent inhibition. The inhibitory activity was expressed as IC50, i.e., the concentration of the same sample solution in the reaction mixture in which concentration 50% inhibition is achieved.

Row | IC50 | SMILES
1 | 56.3 nM | CCCCCCCSC[C@H](NC(C)C(=O)N1CCC[C@H]1C(=O)NC(C)C(=O)O)C(=O)O (stereo partly drawn) [Compound 8]
2 | 33.5 nM | CCCCCCCSC[C@H](NC(C)C(=O)N1CCC[C@H]1C(=O)NC(C(=O)O)C(C)C)C(=O)O (stereo partly drawn) [Compound 9]
3 | 24.1 nM | CCCCCCCSC[C@H](NC(C)C(=O)N1CCC[C@H]1C(=O)NC(Cc1ccccc1)C(=O)O)C(=O)O (stereo partly drawn) [Compound 7]

More lines, now with the values behind:

Row | SMILES | IC50
4 | CC(N[C@@H](CSC1Cc2ccccc2C1)C(=O)O)C(=O)N1CCC[C@H]1C(=O)O (stereo partly drawn) [Compound 2] | 0.687 nM
5 | CC(N[C@@H](CSC1CCCC1)C(=O)O)C(=O)N1CCC[C@H]1C(=O)O (stereo partly drawn) [Compound 3] | 1.02 nM
6 | CC(N[C@@H](CSCC(=O)N1CCCCC1)C(=O)O)C(=O)N1CCC[C@H]1C(=O)O (stereo partly drawn) [Compound 6] | 443 nM
7 | CC(N[C@@H](CSC1(C)CCCCC1)C(=O)O)C(=O)N1CCC[C@H]1C(=O)O (stereo partly drawn) | 5.21 nM
8 | CC(N[C@@H](CSCC(=O)NC1CCCC1)C(=O)O)C(=O)N1CCC[C@H]1C(=O)O (stereo partly drawn) [Compound 4] | 61.1 nM
9 | CC(N[C@@H](CSCC(=O)NCc1ccccc1)C(=O)O)C(=O)N1CCC[C@H]1C(=O)O (stereo partly drawn) [Compound 5] | 342 nM
